Data reported in the supplement of paper PMC4862054.

Experiments:
[1] = test system: HCC1143; conditions: 72 h
Procedure, shortened: (§1)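 In this assay, breast cancer cell lines spent 72 h with compound at 5 concentrations in 10-fold steps over a compound-specific 10,000-fold range. The first readout was cell death by CellTox Green fluorescence, and the second was viability by CellTiter-Glo luminescence, each normalised per plate to 0.1 % DMSO and a positive kill control. EC50 came from the dose-response curves, censored at the top concentration.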

[2] = test system: HCC1937; conditions: 72 h
Procedure, shortened: as §1

[3] = test system: MDA-MB-453; conditions: 72 h
Procedure, shortened: as §1

[4] = test system: MCF-10A; conditions: 72 h
Procedure, shortened: as §1

[5] = test system: SK-BR-3; conditions: 72 h
Procedure, shortened: as §1

[6] = test system: HDQ-P1; conditions: 72 h
Procedure, shortened: as §1

[7] = test system: MDA-MB-436; conditions: 72 h
Procedure, shortened: as §1

[8] = test system: BT-474; conditions: 72 h
Procedure, shortened: as §1

[9] = test system: MDA-MB-231; conditions: 72 h
Procedure, shortened: as §1

[10] = test system: CAL-51; conditions: 72 h
Procedure, shortened: as §1

[11] = test system: BT-549; conditions: 72 h
Procedure, shortened: as §1

[12] = test system: CAL-148; conditions: 72 h
Procedure, shortened: as §1

[13] = test system: HCC1599; conditions: 72 h
Procedure, shortened: as §1

[14] = test system: CAL-85-1; conditions: 72 h
Procedure, shortened: as §1

[15] = test system: DU-4475; conditions: 72 h
Procedure, shortened: as §1

[16] = test system: Hs578T; conditions: 72 h
Procedure, shortened: as §1

[17] = test system: MFM-223; conditions: 72 h
Procedure, shortened: as §1

[18] = test system: MDA-MB-453; conditions: 72 h; remark: listed apart in the source
Procedure, shortened: (§2)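 Compound dissolved in 5 µl medium was placed in 384-well plates before 20 µl of breast cancer cell suspension was added, and the plates were incubated for 72 h. Cells then received 2.5 µl CellTiter-Blue for 2 h at 37 °C, and fluorescence was read at 560/590 nm. EC50 values come from percent-inhibition dose-response fits that were censored at the highest concentration, with plates normalised to vehicle and a positive kill control and rows with a zero drug sensitivity score excluded.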

[19] = test system: HDQ-P1; conditions: 72 h; remark: listed apart in the source
Procedure, shortened: as §2

[20] = test system: CAL-85-1; conditions: 72 h; remark: listed apart in the source
Procedure, shortened: as §2

[21] = test system: DU-4475; conditions: 72 h; remark: listed apart in the source
Procedure, shortened: as §2

[22] = test system: HCC1143; conditions: 72 h; remark: listed apart in the source
Procedure, shortened: as §2

[23] = test system: BT-474; conditions: 72 h; remark: listed apart in the source
Procedure, shortened: as §2

[24] = test system: MDA-MB-468; conditions: 72 h
Procedure, shortened: as §2

[25] = test system: MDA-MB-231; conditions: 72 h; remark: listed apart in the source
Procedure, shortened: as §2

[26] = test system: HCC1599; conditions: 72 h; remark: listed apart in the source
Procedure, shortened: as §2

[27] = test system: Hs578T; conditions: 72 h; remark: listed apart in the source
Procedure, shortened: as §2

[28] = test system: MFM-223; conditions: 72 h; remark: listed apart in the source
Procedure, shortened: as §2

[29] = test system: SK-BR-3; experiment: normalised viability (% of control), CellTiter-Blue; higher = more viable cells (about 100 = DMSO control); conditions: 10 nM; incubation time: 72 h
Procedure, shortened: (§3)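 384-well plates were pre-loaded with compound in 5 µl medium before 20 µl of breast cancer cell suspension was seeded. Following 72 h incubation, 2.5 µl CellTiter-Blue reagent was added for 2 h at 37 °C. Fluorescence was read at 560/590 nm and plates were normalised to vehicle (100) and a positive kill control (0), checked by Z'-factor. Normalised viability is reported at a single listed concentration of the series.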

[30] = test system: MDA-MB-436; experiment: as above; conditions: 10 nM; incubation time: 72 h
Procedure, shortened: as §3

[31] = test system: BT-549; experiment: as above; conditions: 10 nM; incubation time: 72 h
Procedure, shortened: as §3

[32] = test system: Hs578T; experiment: as above; conditions: 10 nM; incubation time: 72 h
Procedure, shortened: as §3

[33] = test system: MFM-223; experiment: as above; conditions: 10 nM; incubation time: 72 h
Procedure, shortened: as §3

[34] = test system: HCC1143; conditions: 72 h; remark: listed apart in the source
Description: (§4)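 Drug sensitivity and resistance testing (DSRT) of breast cancer cell lines in 384-well plates, 5 concentrations in 10-fold dilutions over a compound-specific 10,000-fold range. After 72 h, cytotoxicity was read by CellTox Green fluorescence and viability by CellTiter-Glo luminescence (multiplexed), normalised to DMSO and benzethonium chloride controls. EC50 is the inflection point of the fitted dose-response curve (bottom asymptote free, so it can be relative for partial curves) and is censored at the highest tested concentration. Rows with DSS 0 (no meaningful response) were excluded.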

[35] = test system: MCF-10A; conditions: 72 h; remark: listed apart in the source
Description: as §4

[36] = test system: CAL-120; conditions: 72 h
Description: as §4

[37] = test system: BT-474; conditions: 72 h; remark: listed apart in the source
Description: as §4

[38] = test system: MDA-MB-468; conditions: 72 h; remark: listed apart in the source
Description: as §4

[39] = test system: MDA-MB-231; conditions: 72 h; remark: listed apart in the source
Description: as §4

[40] = test system: CAL-51; conditions: 72 h; remark: listed apart in the source
Description: as §4

[41] = test system: BT-549; conditions: 72 h; remark: listed apart in the source
Description: as §4

[42] = test system: HCC1599; conditions: 72 h; remark: listed apart in the source
Description: as §4

[43] = test system: CAL-85-1; conditions: 72 h; remark: listed apart in the source
Description: as §4

[44] = test system: Hs578T; conditions: 72 h; remark: listed apart in the source
Description: as §4

[45] = test system: MFM-223; conditions: 72 h; remark: listed apart in the source
Description: as §4

EC50, CellTiter-Glo [1]: 2.51 nM | EC50, CellTiter-Glo [2]: 2.55 nM | EC50, CellTiter-Glo [3]: 2.44 nM | EC50, CellTiter-Glo [5]: 2.44 nM | EC50, CellTiter-Glo [7]: 3.49 nM | EC50, CellTiter-Glo [8]: 5.38 nM | EC50, CellTiter-Glo [9]: 5.07 nM | EC50, CellTiter-Glo [11]: 2.25 nM | EC50, CellTiter-Glo [13]: 19.7 nM | EC50, CellTiter-Blue viability [18]: 6.17 nM | EC50, CellTiter-Blue viability [22]: 1.61 nM | EC50, CellTiter-Blue viability [23]: 0.15 nM | EC50, CellTiter-Blue viability [24]: 1.5 nM | EC50, CellTiter-Blue viability [25]: 1.61 nM | EC50, CellTiter-Blue viability [26]: 61.1 nM
SMILES: CC[C@]1(O)C[C@@H]2CN(CCc3c([nH]c4ccccc34)[C@@](C(=O)OC)(c3cc4c(cc3OC)N(C)[C@H]3[C@@](O)(C(=O)OC)[C@H](OC(C)=O)[C@]5(CC)C=CCN6CC[C@]43[C@@H]65)C2)C1 [Vinblastine]
EC50, CellTiter-Glo [4]: 2.59 nM | EC50, CellTiter-Glo [6]: 5.35 nM | EC50, CellTiter-Glo [10]: 8.68 nM | EC50, CellTiter-Glo [12]: 8.95 nM | EC50, CellTiter-Glo [14]: 2.04 nM | EC50, CellTiter-Glo [15]: 75.5 nM | EC50, CellTiter-Glo [16]: 9.25 nM | EC50, CellTiter-Glo [17]: 12.4 nM | EC50, CellTiter-Blue viability [19]: 5.43 nM | EC50, CellTiter-Blue viability [20]: 6.34 nM | EC50, CellTiter-Blue viability [21]: 52.4 nM | EC50, CellTiter-Blue viability [27]: 1.3 nM | EC50, CellTiter-Blue viability [28]: 36 nM | normalised viability [29]: 13% | normalised viability [30]: 51.5% | normalised viability [31]: 26.3% | normalised viability [32]: 14.7% | normalised viability [33]: 76.7% | EC50, CellTox Green [34]: 61.8 nM | EC50, CellTox Green [35]: 11.4 nM | EC50, CellTox Green [36]: > 1000 nM | EC50, CellTox Green [37]: 2.92 nM | EC50, CellTox Green [38]: 2.48 nM | EC50, CellTox Green [39]: 15.8 nM | EC50, CellTox Green [40]: 3.78 nM | EC50, CellTox Green [41]: 4.29 nM | EC50, CellTox Green [42]: 7.49 nM | EC50, CellTox Green [43]: 9.62 nM | EC50, CellTox Green [44]: 15.2 nM | EC50, CellTox Green [45]: 7.9 nM
